Source: patent US9127040B2, “Regulation of sodium channels by PLUNC proteins” (The University of North Carolina at Chapel Hill, priority 2011, dated 2015)

T1: αβγENaC (Rattus norvegicus, UniProt P37089+P37090+P37091)
T1 construct: expressed in transfected cells; host or cells: Xenopus laevis oocytes (cRNA injection)
T1 sequence (P37089 1-698): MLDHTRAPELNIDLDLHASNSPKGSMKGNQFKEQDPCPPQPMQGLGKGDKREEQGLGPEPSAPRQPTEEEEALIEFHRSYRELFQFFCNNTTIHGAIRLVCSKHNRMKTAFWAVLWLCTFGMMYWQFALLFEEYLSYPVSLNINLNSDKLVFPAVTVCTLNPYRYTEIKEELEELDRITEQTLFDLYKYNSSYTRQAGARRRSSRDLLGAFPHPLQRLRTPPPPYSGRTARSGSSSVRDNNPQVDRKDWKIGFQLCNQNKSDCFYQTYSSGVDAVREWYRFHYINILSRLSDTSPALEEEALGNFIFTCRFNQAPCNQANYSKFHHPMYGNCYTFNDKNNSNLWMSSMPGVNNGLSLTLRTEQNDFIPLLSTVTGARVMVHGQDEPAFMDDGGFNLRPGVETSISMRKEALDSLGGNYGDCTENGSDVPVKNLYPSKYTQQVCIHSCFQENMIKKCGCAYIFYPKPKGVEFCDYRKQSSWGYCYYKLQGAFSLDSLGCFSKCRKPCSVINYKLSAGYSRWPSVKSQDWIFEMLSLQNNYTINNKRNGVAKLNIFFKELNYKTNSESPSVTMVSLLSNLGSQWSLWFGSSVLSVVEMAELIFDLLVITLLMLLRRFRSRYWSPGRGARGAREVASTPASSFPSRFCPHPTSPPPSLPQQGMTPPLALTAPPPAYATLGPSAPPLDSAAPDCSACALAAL
T1 sequence (P37090 1-638): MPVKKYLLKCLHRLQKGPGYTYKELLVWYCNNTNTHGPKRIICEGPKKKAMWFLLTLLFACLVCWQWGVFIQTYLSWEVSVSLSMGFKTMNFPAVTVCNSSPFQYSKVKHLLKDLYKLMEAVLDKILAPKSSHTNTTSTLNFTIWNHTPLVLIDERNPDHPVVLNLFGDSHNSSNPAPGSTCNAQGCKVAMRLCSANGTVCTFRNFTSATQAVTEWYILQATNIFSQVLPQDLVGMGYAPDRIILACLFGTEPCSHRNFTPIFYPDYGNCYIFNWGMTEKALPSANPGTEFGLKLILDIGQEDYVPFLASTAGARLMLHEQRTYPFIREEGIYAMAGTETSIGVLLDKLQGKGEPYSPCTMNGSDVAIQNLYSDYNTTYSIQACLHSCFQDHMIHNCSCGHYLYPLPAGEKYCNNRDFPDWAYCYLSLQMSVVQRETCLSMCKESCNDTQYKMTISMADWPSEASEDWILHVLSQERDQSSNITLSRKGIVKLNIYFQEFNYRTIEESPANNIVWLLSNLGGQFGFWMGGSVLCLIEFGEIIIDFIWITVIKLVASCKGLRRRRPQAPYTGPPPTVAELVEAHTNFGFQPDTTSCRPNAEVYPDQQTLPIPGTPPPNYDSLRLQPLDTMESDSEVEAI
T1 sequence (P37091 1-650): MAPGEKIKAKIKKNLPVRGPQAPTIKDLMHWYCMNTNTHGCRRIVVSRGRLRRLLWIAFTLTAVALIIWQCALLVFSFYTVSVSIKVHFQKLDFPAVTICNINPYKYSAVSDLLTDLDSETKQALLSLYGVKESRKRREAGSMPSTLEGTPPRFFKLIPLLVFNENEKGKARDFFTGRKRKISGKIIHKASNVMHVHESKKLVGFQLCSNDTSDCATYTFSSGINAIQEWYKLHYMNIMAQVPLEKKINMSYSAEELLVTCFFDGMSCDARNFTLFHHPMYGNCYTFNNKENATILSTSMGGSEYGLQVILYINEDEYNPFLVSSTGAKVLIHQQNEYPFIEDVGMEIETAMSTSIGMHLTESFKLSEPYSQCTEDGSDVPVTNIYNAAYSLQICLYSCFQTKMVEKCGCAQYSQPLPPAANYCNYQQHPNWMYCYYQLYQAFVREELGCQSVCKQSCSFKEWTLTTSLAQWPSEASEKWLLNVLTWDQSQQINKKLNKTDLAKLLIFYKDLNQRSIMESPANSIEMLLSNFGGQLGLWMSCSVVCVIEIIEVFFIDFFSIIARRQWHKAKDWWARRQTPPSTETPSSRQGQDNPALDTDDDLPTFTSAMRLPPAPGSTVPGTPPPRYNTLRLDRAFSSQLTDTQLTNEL


Assays:
NL HBECs = assay: ASL height by confocal microscopy in normal lung (NL) HBECs; format: cell-based, human; settings: Ringer with 50 mM NaCl exchanged for 100 mM POPSO; 3 h
Method: To label airway surface liquid, Ringer containing Texas Red-dextran (2 mg/ml; Invitrogen) was added to human bronchial epithelial culture mucosal surfaces. Perfluorocarbon was added mucosally to prevent evaporation of the airway surface liquid and the culture placed in a chamber containing 100 μl Ringer on the stage of a Leica SP5 confocal microscope with a 63× glycerol immersion objective. 5 points per culture were scanned and an average airway surface liquid height determined. For confocal microscopy human bronchial epithelial cultures were bathed serosally in a modified Ringer solution containing (mM): 116 NaCl, 10 NaHCO3, 5.1 KCl, 1.2 CaCl2, 1.2 MgCl2, 20 TES, 10 glucose, pH 7.4). At all other times, human bronchial epithelial cultures were maintained in a modified BEGM growth medium which contained 24 mM NaHCO3 gassed with 5% CO2.
To label the ASL, PBS containing 10 kDa Rhodamine dextran (0.2-2 mg/mL; Invitrogen, Carlsbad, Calif., USA) was added to HBEC mucosal surfaces as previously described (Tarran et al., Mol. Cell 8:149 (2001)). When added, peptides with or without 100 nM neutrophil elastase, 1 U/mL aprotinin, activated neutrophil supernatant (ANS) (Haynes et al., Am. J. Physiol. Heart Circ. Physiol. 294:H379 (2008)) or 10 μM sivelestat (Sigma-Aldrich, St Louis, Mo., USA) were added to the mucosal surface along with the Rhodamine dextran. Bumetanide (100 μM) was added to the serosal solution.

CF HBECs = settings: Ringer with 50 mM NaCl exchanged for 100 mM POPSO; 3 h
αβγENaC = molecular target: T1, αβγENaC; assay: Amiloride-sensitive whole cell current, two electrode voltage clamp, Xenopus laevis oocytes expressing αβγENaC; format: cell-based; settings: PLUNC family member co-expressed with α,β,γ ENaC
Method: Xenopus laevis oocytes were harvested and injected as described (Donaldson, et al., J. Biol. Chem. 277:8338 (2002)). Defolliculated healthy stage V-VI oocytes were injected with 0.3 ng of CRNA of each ENaC subunit. Injected oocytes were kept in modified Barth's saline (in mM: 88 NaCl, 1 KCl, 2.4 NaHCO3, 0.3 Ca(NO3)2, 0.41 CaCl2, 0.82 MgSO4, and 15 HEPES, adjusted to pH 7.35 with Tris). Oocytes were studied 24 hr after injection using the two electrode voltage clamp technique as previously described (Donaldson, et al., J. Biol. Chem. 277:8338 (2002)). Oocytes were clamped at a holding potential of −60 mV. The change in amiloride-sensitive whole cell current as an indicator of ENaC activity was determined by subtracting the corresponding current value measured in the presence of 10 μM amiloride from that measured before the application of amiloride. Where appropriate, oocytes were incubated with G22-A39 or ABC for 1 h prior to recording. In some experiments β-ENaC^S518C was used which forms ENaCs that are locked into an open probability near 1.0 by exposure to the sulthydral reactive reagent [2-(Trimethyl-ammonium)ethyl]methanethiosulphonate bromide (MTSET). MTSET was added at a concentration of 1 mM to the oocyte bath as previously described (Snyder, J. Clin. Invest. 105: 45 (2000)).

Molecule | NL ASL height (NL HBECs) | CF ASL height (CF HBECs) | amiloride-sensitive ENaC current relative to control, co-expression (αβγENaC)
O=S(=O)(O)CC(O)CN1CCN(CC(O)CS(=O)(=O)O)CC1 (stereo not drawn) [POPSO, reference compound] | no effect | significantly elevated | –
LPLUNC1: long PLUNC family member co-expressed in Xenopus oocytes (protein) TLSPTAVLILGPKVIKEKLTQELKDHNATSILQQLPLLSAMREKPAGGIPVLGSLVNTVLKHIIWLKVITANILQLQVKPSANDQELLVKIPLDMVAGFNTPLVKTIVEFHMTTEAQATIRMDTSASGPTRLVLSDCATSHGSLRIQLLHKLSFLVNALAKQVMNLLVPSLPNLVKNQLCPVIEASFNGMYADLLQLVKVPISLSIDRLEFDLLYPAIKGDTIQLYLGAKLLDSQGKVTKWFNNSAASLTMPTLDNIPFSLIVSQDVVKAAVAAVLSPEEFMVLLDSVLPESAHRLKSSIGLINEKAADKLGSTQIVKILTQDTPEFFIDQGHAKVAQLIVLEVFPSSEALRPLFTLGIEASSEAQFYTKGDQLILNLNNISSDRIQLMNSGIGWFQPDVLKNIITEIIHSILLPNQNGKLRSGVPVSLVKALGFEAAESSLTKDALVLTPASLWKPSSPVSQ | – | – | no significant ENaC current reduction
